Test: method code SF-AS, from DOI: 10.1007/bf00778146
With `CC1(C)OCC(Nc2nc(N3CC3)nc(N3CC3)n2)CO1` the logP was 0.11. In the case of `OCC1(Nc2nc(N3CC3)nc(N3CC3)n2)COC(c2ccccc2)OC1` (stereo unspecified), the logP is reported as 0.62. `OCC(CO)Nc1nc(N2CC2)nc(N2CC2)n1` showed a logP of -1.54. In the case of `CC(CO)(CO)Nc1nc(N2CC2)nc(N2CC2)n1`, the logP is reported as -0.75. `CC1(C)OCC(CO)(Nc2nc(N3CC3)nc(N3CC3)n2)CO1` gave a logP of -0.52. `COc1ccc(C2OCC(CO)(Nc3nc(N4CC4)nc(N4CC4)n3)CO2)cc1OC` (stereo unspecified) gave a logP of 0.89. Work on `CCC(CO)(CO)Nc1nc(N2CC2)nc(N2CC2)n1` yielded a logP of -0.32. `CCC1(Nc2nc(N3CC3)nc(N3CC3)n2)COC(C)(C)OC1` gave a logP of 0.85. In the case of `CC(C)C1OCC(CO)(Nc2nc(N3CC3)nc(N3CC3)n2)CO1` (stereo unspecified), the logP is reported as 0.22. With `OCC(CO)(CO)Nc1nc(N2CC2)nc(N2CC2)n1` the logP was -1.76. Compound `OCC1(Nc2nc(N3CC3)nc(N3CC3)n2)COC(c2ccco2)OC1` (stereo unspecified) has a logP of 0.27.

From the SangsterLogP compilation
